Source: PMC11519904, “Comprehensive Cell Biological Investigation of Cytochalasin B Derivatives with Distinct Activities on the Actin Network” (Journal of Natural Products, 2024)
Several values for one entry are separate records, joined by “and”; a condition that tells them apart may be missing. Equal entries are not always repeated. Entries after “also recorded” stand apart in the source; their conditions may differ. Where two headings read alike, the source gives them in different places.

Assays:
[1] = system: L929 (mouse fibroblast); experiment: Cytotoxicity assay (MTT), L929; format: cell-based; settings: Mus musculus, L929, 120 h, read-out: IC50 L929
Method: (§1) The cytotoxicity assay was implemented in 96-well flat-bottom microtiter plates following a reported procedure.[21],[22],[33] The mammalian cell lines L929 (mouse fibroblast) and KB3.1 (human cervix carcinoma) were cultivated at 37 °C and 10% CO2 in Dulbecco’s modified minimum essential medium (DMEM, Life Technologies, Carlsbad, CA, USA) supplemented with 10% fetal bovine serum (FBS, Life Technologies). The microtiter plate was filled with 120 μL of suspended cells (50,000/mL), and 60 μL of a serial dilution of the test compound was added. After 5 days of incubation, growth inhibition (IC50) was determined by a colorimetric tetrazolium dye MTT assay.[34] The compounds were dissolved in MeOH (1 mg/mL), MeOH was used as negative control, and epothilone[35] (1 mg/mL) was used as positive control.

[2] = system: filamentous actin (F-actin) in U-2OS wild type (wt) cells; experiment: Actin disruption assay in U-2OS cells (phalloidin staining); format: cell-based, human; settings: for effect on F-actin network, high dose 1 h: 5 x IC50 (L929), compared to control; for effect on actin and nuclei number, high dose 24 h: 5 x IC50, 24 h, differences between 1 and 24 h treatment
Method: For this, the human osteosarcoma cell line U-2OS was treated using concentrations estimated based on previously determined IC50 values in murine L929 fibroblasts (Table 1), referred to as low dose (1 × IC50), and a 5-fold concentration, referred to as high dose (5 × IC50). Reorganization of the F-actin network was also investigated upon high dose treatment, followed by washout and a 1 h recovery phase in fresh medium. The impact on F-actin network organization was visualized using fluorescently labeled phalloidin (Figure 2). […] In addition, the effects on F-actin structures observed upon high dose treatment of all compounds were fully reversible after a 1 h recovery time (Figure 2m–q).
The respective previously determined IC50 values in L929 were used to calculate the treatment concentration (1 × IC50: low dose; 5 × IC50: high dose).[37] DMSO was used as the vehicle control, corresponding to the highest compound volume used in the assay. Coverslips were coated with 25 μg/mL fibronectin (Roche, Mannheim, Germany) diluted 1:40 in phosphate buffered saline (PBS, pH 7.4, Life Technologies), and cells were seeded at a density of 20,000 cells and allowed to spread overnight. CO2-equilibrated culture medium was spiked with the desired compound and DMSO, respectively, in the above-mentioned concentration, and cells were treated with prepared medium for 1 h under cell culture conditions. For long-term experiments, the treatment phase was extended to 24 h. Cells were washed once and fixed afterward using 4% prewarmed paraformaldehyde (PFA) supplied in PBS for 20 min at 37 °C, followed by three additional washing steps with prewarmed PBS buffer. In addition, the reversibility of high dose effects on F-actin network organization was investigated by a washout procedure including three times prewarmed PBS wash steps prior to the addition of fresh medium and a recovery time of 1 h before fixation. In the case of 24 h treatments, the recovery phase was extended to 47 h. Cells were permeabilized with 0.1% Triton X-100 (Bio-Rad Laboratories, Hercules, CA, USA) in PBS buffer for 1 min at room temperature, washed three times with PBS, and stained for F-actin using ATTO-594-coupled phalloidin (ATTO-Tec, Siegen, Germany) diluted in PBS buffer (1:100) for 1 h at room temperature. Coverslips were washed thrice in PBS and mounted in ProLong Diamond antifade mountant (Invitrogen) containing DAPI to probe for nuclear DNA. Cells were recorded using an inverted microscope (Nikon Eclipse Ti2, Tokyo, Japan) equipped with a 60 times Nikon oil immersion objective (Plan Apofluar, 1.4 NA), a pE-4000 (CoolLED, Andover, UK) as light source, and a pco.edge back-illuminated sCMOS camera (Excelitas Technologies, Mississauga, ON, Canada). The microscopy system was operated by and images were recorded with NIS (Nikon) and processed with ImageJ (NIH, Bethesda, MD, USA).

[3] = target: T1, actin (G-actin purified from rabbit skeletal muscle) (Oryctolagus cuniculus, UniProt P68135); experiment: Pyrene actin polymerization assay; format: biochemical; settings: 2 μM compound, 2 μM actin (5% pyrene-actin), 550 nM actin seeds, after 30 min; control = 100%
T1 construct: 1.5 kg of fresh rabbit skeletal muscle was minced with a meat grinder; from tissue; host or cells: rabbit skeletal muscle (acetone powder)
From the text: To rule out that the reduced in cellulo efficacies of 3–5 could instead be explained by an altered membrane permeability of modified compounds or their differential effects on other intracellular factors, pyrene actin polymerization assays[23] were used to analyze potential effects on actin assembly in vitro under defined conditions. Globular actin (G-actin) was purified from rabbit skeletal muscle[24] and fluorescently labeled with pyrene (see description in the Supporting Information). G-actin (2 μM) supplemented with 5% pyrene-labeled actin was added to actin seeds and the respective compound (2 μM) in polymerization buffer to initiate the reaction. Actin polymerization was then assessed by reading out the increasing pyrene fluorescence signal over time (Figure 3).
Acetone powder and G-actin were prepared as described previously.[24] Briefly, 1.5 kg of fresh rabbit skeletal muscle was minced with a meat grinder. Subsequently, the meat was stirred for 15 min in 2.5 L of high-salt buffer (0.5 M KCl, 0.1 M K2HPO4, 2 mM benzamidine, pH 6.4) and then pelleted at 4000g for 10 min. The supernatant was discarded, and the pellet was extracted once more with high-salt buffer and then washed twice with ice-cold ddH2O adjusting the slurry with 1 M Na2CO3 to pH 8.3 until a slight swelling of the pellet became visible. The pellet was then resuspended in ice-cold acetone, stirred for 15 min, and then centrifuged for 10 min at 4000g. The supernatant was discarded, and the pellet was washed once more with acetone before the pellet was broken up and dried in small pieces on aluminum foil under a fume hood overnight. The dried acetone powder was stored at −80 °C for further use.
For purification of G-actin, 5 g of the acetone powder was extracted five times with 50 mL of G-buffer containing 2 mM Tris-HCl, pH 8.0, 0.2 mM CaCl2, 0.5 mM DTT, 0.2 mM Na2ATP, and 0.1 mg/mL NaN3. After each step, the solution was filtered through a fine gauze, yielding a total volume of 250 mL. Subsequently, the solution was centrifuged for 30 min at 20,000g at 4 °C. Actin in the supernatant was then polymerized by addition of 25 × polymerization buffer (250 mM Tris-HCl pH 8.0, 1250 mM KCl, 25 mM Na2ATP, 50 mM MgCl2 × 6 H2O) overnight. Subsequently, KCl was added to a final concentration of 750 mM, followed by centrifugation of the solution at 150,000g at 4 °C for 3 h. The F-actin pellet was then homogenized with 25 mL of G-actin buffer using a potter and then dialyzed against G-buffer. After a final centrifugation step at 150,000g at 4 °C for 3 h, G-actin was purified by size exclusion chromatography using a HiLoad 26/75 Superdex 200 column. Actin concentrations were determined by measuring the absorbance at 290 nm and using an extinction coefficient of 26,600 M^–1 cm^–1.
For pyrene labeling, 10–20 mL of G-actin solution were dialyzed against labeling buffer following the procedure described by Doolittle et al.[38] […]
Pyrene assays were conducted to assess the inhibitory properties of cytochalasins on actin polymerization under defined conditions in vitro using G-actin and actin seeds. The degree of labeling was determined; EC290 nm actin: 26600 1/M × cm; EC342 nm pyrene: 31091 1/M × cm. […]

[4] = system: glucose carrier in human erythrocytes; settings: human erythrocytes ref 29, 30; cited from earlier work
[5] = system: human potassium channel hKv1.5; parameters: method as in PMID 15800051; settings: cited from earlier work
[6] = system: KB3.1 (human cervix carcinoma); experiment: Cytotoxicity assay (MTT), KB3.1; format: cell-based; settings: Homo sapiens, KB 3-1, 120 h, read-out: IC50 KB3.1
Method: as §1

[7] = 5 days of incubation, MTT, NC: no cytotoxic effect, or only weak inhibition of proliferation

SMILES	IC50 [1, 7]	effect on F-actin network, low dose ([2]; 1 x IC50 (L929), 1 h)	effect on F-actin network, high dose 1 h ([2]; 1 h)	effect on actin and nuclei number, high dose 24 h [2]	relative actin polymerization rate [3]	inhibition of glucose transport [4]	inhibitory activity on hKv1.5 [5]	IC50 [1]	IC50 [6]
C=C1[C@@H](C)[C@H]2[C@H](Cc3ccccc3)NC(=O)[C@]23OC(=O)/C=C/[C@H](O)CCC[C@@H](C)C/C=C/[C@H]3[C@@H]1O [Compound 2, cytochalasin B]	1300 nM	partially led to compromised lamellipodia and a reduction of intermittent, cytoplasmic F-actin	complete collapse of the F-actin network; also recorded: actin disruption	+ multinucleation; also recorded: formation of multinucleated cells	45%	inhibits glucose transport	inhibitory activity		
C=C1[C@@H](C)[C@H]2[C@H](Cc3ccccc3)N(C)C(=O)[C@]23OC(=O)/C=C/[C@H](O)CCC[C@@H](C)C/C=C/[C@H]3[C@@H]1O [Compound 4, N-methyl cytochalasin B]	> 10000 nM		only slight; also recorded: moderate effects	caused multinucleation, but left the actin network largely unchanged	83% and 84–86% and 84%				
C/C(=C\c1csc(C)n1)[C@@H]1C[C@@H]2O[C@]2(C)CCC[C@H](C)[C@H](O)[C@@H](C)C(=O)C(C)(C)[C@@H](O)CC(=O)O1 [Epothilone B, reference compound]								0.58 nM	0.095 nM
